Test results published in patent publication US10428044B2, “3-amino-1,5,6,7-tetrahydro-4H-indol-4-ones” (Bayer Pharma Aktiengesellschaft, priority 2014, dated 2019).

Molecular target: (recombinant) catalytic domain of human Bub1 (amino acids 704-1085) (Homo sapiens (Human), UniProt O43683)
Experiment: Bub1 kinase assay (TR-FRET)
Type: biochemical
Settings: ATP 10 μM final, peptide substrate 1 μM final, 60 min at 22° C., read-out: Biological Assay: Bub1 kinase assay median IC50
How it was run: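 Compounds were serially diluted 1:3.4 from 2 mM DMSO stocks and incubated with the enzyme reaction for 60 min at 22° C. The reaction was stopped with EDTA, and biotinylated peptide phosphorylation was read by TR-FRET using Eu anti-mouse IgG, anti-phosphoserine antibody and streptavidin-XL665. IC50 was fitted by 4-parameter logistic to inhibition normalized to no-inhibitor and no-enzyme controls.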

(recombinant) catalytic domain of human Bub1 (amino acids 704-1085), sequence (O43683 704-1085): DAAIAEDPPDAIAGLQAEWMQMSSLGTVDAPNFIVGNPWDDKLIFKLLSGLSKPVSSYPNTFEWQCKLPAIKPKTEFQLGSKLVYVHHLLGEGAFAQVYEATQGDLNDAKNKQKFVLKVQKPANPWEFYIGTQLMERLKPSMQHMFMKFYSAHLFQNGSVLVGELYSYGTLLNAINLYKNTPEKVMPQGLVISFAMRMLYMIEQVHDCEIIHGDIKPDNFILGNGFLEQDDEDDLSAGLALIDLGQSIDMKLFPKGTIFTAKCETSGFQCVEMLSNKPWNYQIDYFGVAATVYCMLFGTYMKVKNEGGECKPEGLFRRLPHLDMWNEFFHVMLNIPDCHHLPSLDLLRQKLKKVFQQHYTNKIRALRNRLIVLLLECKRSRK

Structure (SMILES)	IC50 [nM]
CSCCNC(=O)Nc1cc(-c2[nH]c3c(c2Nc2ccccc2)C(=O)CCC3)ccn1 [Example 389, 1-[2-(methylsulfanyl)ethyl]-3-{4-[4-oxo-3-(phenylamino)-4,5,6,7-tetrahydro-1H-indol-2-yl]pyridin-2-yl}urea]	38.9
O=C1CCCc2[nH]c(-c3ccnc(NC(=O)C4CC4(F)F)c3)c(Nc3ccccc3)c21 (racemic) [Example 260, 2,2-difluoro-N-{4-[4-oxo-3-(phenylamino)-4,5,6,7-tetrahydro-1H-indol-2-yl]pyridin-2-yl}cyclopropanecarboxamide]	23.6
O=C1CC2(CC2)Cc2[nH]c(-c3ccnc(NC(=O)C4CC4)c3)c(Nc3ccccc3)c21 [Example 294, N-{4-[4′-oxo-3′-(phenylamino)-1′,4′,5′,7′-tetrahydrospiro[cyclopropane-1,6′-indol]-2′-yl]pyridin-2-yl}cyclopropanecarboxamide]	9.17
Cn1c2c(c(Nc3ccccc3)c1-c1ccncc1)C(=O)CC(C)(C)C2 [Example 179, 1,6,6-trimethyl-3-(phenylamino)-2-(pyridin-4-yl)-1,5,6,7-tetrahydro-4H-indol-4-one]	162
CC1(C)CC(=O)c2c([nH]c(-c3ccncc3)c2Nc2cccc(-c3ccccc3)c2)C1 [Example 45, 3-(biphenyl-3-ylamino)-6,6-dimethyl-2-(pyridin-4-yl)-1,5,6,7-tetrahydro-4H-indol-4-one]	20.8
CC1(C)CC(=O)c2c([nH]c(-c3ccncc3OCCO)c2Nc2ccccc2)C1 [Example 409, 2-[3-(2-hydroxyethoxy)pyridin-4-yl]-6,6-dimethyl-3-(phenylamino)-1,5,6,7-tetrahydro-4H-indol-4-one]	9.63
O=C(O)CNc1cc(-c2[nH]c3c(c2Nc2ccccc2)C(=O)CCC3)ccn1 [Example 369, N-{4-[4-oxo-3-(phenylamino)-4,5,6,7-tetrahydro-1H-indol-2-yl]pyridin-2-yl}glycine]	362
CC1(C)CC(=O)c2c([nH]c(-c3ccnc(N)n3)c2Nc2ccccc2)C1 [Example 223, 2-(2-aminopyrimidin-4-yl)-6,6-dimethyl-3-(phenylamino)-1,5,6,7-tetrahydro-4H-indol-4-one]	40.5
O=C1CCCc2[nH]c(-c3ccncc3Br)c(Nc3ccccc3)c21 [Example 196, 2-(3-bromopyridin-4-yl)-3-(phenylamino)-1,5,6,7-tetrahydro-4H-indol-4-one]	36.5
Cn1c2c(c(Nc3ccccc3)c1-c1ccncc1)C(=O)CCC2 [Example 169, 1-methyl-3-(phenylamino)-2-(pyridin-4-yl)-1,5,6,7-tetrahydro-4H-indol-4-one]	125
O=C1CCCc2[nH]c(-c3ccnc(NC(=S)NC4CC4)c3)c(Nc3ccccc3)c21 [Example 395, 1-cyclopropyl-3-{4-[4-oxo-3-(phenylamino)-4,5,6,7-tetrahydro-1H-indol-2-yl]pyridin-2-yl}thiourea]	213
CC(=O)Nc1cc(-c2[nH]c3c(c2Nc2ccccc2)C(=O)CC(CF)C3)ccn1 (stereo not drawn) [Example 461, N-{4-[6-(fluoromethyl)-4-oxo-3-(phenylamino)-4,5,6,7-tetrahydro-1H-indol-2-yl]pyridin-2-yl}acetamide]	6.88
Cn1nccc1-c1cccc(Nc2c(-c3ccncc3)[nH]c3c2C(=O)CC(C)(C)C3)c1 [Example 417, 6,6-dimethyl-3-{[3-(1-methyl-1H-pyrazol-5-yl)phenyl]amino}-2-(pyridin-4-yl)-1,5,6,7-tetrahydro-4H-indol-4-one]	273
CC1(C)CC(=O)c2c([nH]c(-c3ccncc3C(F)(F)F)c2Nc2ccccc2)C1 [Example 438, 6,6-dimethyl-3-(phenylamino)-2-[3-(trifluoromethyl)pyridin-4-yl]-1,5,6,7-tetrahydro-4H-indol-4-one]	345
CC1(C)CC(=O)c2c([nH]c(-c3ccncc3C#N)c2Nc2cccc(F)c2)C1 [Example 198, 4-{3-[(3-fluorophenyl)amino]-6,6-dimethyl-4-oxo-4,5,6,7-tetrahydro-1H-indol-2-yl}pyridine-3-carbonitrile]	10900
CC(=O)N(C(C)=O)c1cc(-c2[nH]c3c(c2Nc2ccccc2)C(=O)CC(C)(C)C3)ccn1 [Example 133, N-acetyl-N-{4-[6,6-dimethyl-4-oxo-3-(phenylamino)-4,5,6,7-tetrahydro-1H-indol-2 yl]pyridin-2-yl}acetamide]	49.2
O=C(CN1CCCC1)Nc1cc(-c2[nH]c3c(c2Nc2ccccc2)C(=O)CCC3)ccn1 [Example 308, N-{4-[4-oxo-3-(phenylamino)-4,5,6,7-tetrahydro-1H-indol-2-yl]pyridin-2-yl}-2-(pyrrolidin-1-yl)acetamide]	234
CC(=O)Nc1cc(-c2[nH]c3c(c2Nc2ccccc2)C(=O)CC(C(C)C)C3)ccn1 (stereo not drawn) [Example 317, N-{4-[4-oxo-3-(phenylamino)-6-(propan-2-yl)-4,5,6,7-tetrahydro-1H-indol-2-yl]pyridin-2-yl}acetamide]	10.9

Structure (SMILES)	IC50 [nM]
CC1(C)CC(=O)c2c([nH]c(-c3ccncc3)c2Nc2ccccc2CO)C1 [Example 426, 3-{[2-(hydroxymethyl)phenyl]amino}-6,6-dimethyl-2-(pyridin-4-yl)-1,5,6,7-tetrahydro-4H-indol-4-one]	2.58
O=C1CCCc2[nH]c(-c3ccnc(NCc4cncs4)c3)c(Nc3ccccc3)c21 [Example 500, 3-(phenylamino)-2-{2-[(1,3-thiazol-5-ylmethyl)amino]pyridin-4-yl}-1,5,6,7-tetrahydro-4H-indol-4-one]	356
CC(C)COCC(=O)Nc1cc(-c2[nH]c3c(c2Nc2ccccc2)C(=O)CCC3)ccn1 [Example 331, 2-(2-methylpropoxy)-N-{4-[4-oxo-3-(phenylamino)-4,5,6,7-tetrahydro-1H-indol-2-yl]pyridin-2-yl}acetamide]	13
CC1(C)CC(=O)c2c([nH]c(-c3ccncc3)c2Nc2cccc(C(N)=O)c2)C1 [Example 101, 3-{[6,6-dimethyl-4-oxo-2-(pyridin-4-yl)-4,5,6,7-tetrahydro-1H-indol-3-yl]amino}benzamide]	507
Cc1ccccc1Nc1c(-c2ccncc2)[nH]c2c1C(=O)CC(C)(C)C2 [Example 53, 6,6-dimethyl-3-[(2-methylphenyl)amino]-2-(pyridin-4-yl)-1,5,6,7-tetrahydro-4H-indol-4-one]	82.2
O=C(Cc1cc[nH]c1)Nc1cc(-c2[nH]c3c(c2Nc2ccccc2)C(=O)CCC3)ccn1 [Example 286, N-{4-[4-oxo-3-(phenylamino)-4,5,6,7-tetrahydro-1H-indol-2-yl]pyridin-2-yl}-2-(1H-pyrrol-3-yl)acetamide]	21.6
CC1(C)CC(=O)c2c([nH]c(-c3ccnc(NC(=O)C(C)(C)F)c3)c2Nc2ccccc2)C1 [Example 475, N-{4-[6,6-dimethyl-4-oxo-3-(phenylamino)-4,5,6,7-tetrahydro-1H-indol-2-yl]pyridin-2-yl}-2-fluoro-2-methylpropanamide]	38.7
O=C(CCc1ccccc1)Nc1cc(-c2[nH]c3c(c2Nc2ccccc2)C(=O)CCC3)ccn1 [Example 235, N-{4-[4-oxo-3-(phenylamino)-4,5,6,7-tetrahydro-1H-indol-2-yl]pyridin-2-yl}-3-phenylpropanamide]	61.6
O=C(Cc1ccsc1)Nc1cc(-c2[nH]c3c(c2Nc2ccccc2)C(=O)CCC3)ccn1 [Example 291, N-{4-[4-oxo-3-(phenylamino)-4,5,6,7-tetrahydro-1H-indol-2-yl]pyridin-2-yl}-2-(thiophen-3-yl)acetamide]	28.7
Nc1cc(-c2[nH]c3c(c2Nc2ccccc2)C(=O)CC2(CC2)C3)ccn1 [Example 206, 2′-(2-aminopyridin-4-yl)-3′-(phenylamino)-1′,7′-dihydrospiro[cyclopropane-1,6′-indol]-4′(5′H)-one]	9.73
CC1(C)CC(=O)c2c([nH]c(-c3ccnc(C#N)c3)c2Nc2ccccc2)C1 [Example 46, 4-[6,6-dimethyl-4-oxo-3-(phenylamino)-4,5,6,7-tetrahydro-1H-indol-2-yl]pyridine-2-carbonitrile]	29.1
CC(C)(C)C(=O)Nc1cc(-c2[nH]c3c(c2Nc2ccccc2)C(=O)CCC3)ccn1 [Example 227, 2,2-dimethyl-N-{4-[4-oxo-3-(phenylamino)-4,5,6,7-tetrahydro-1H-indol-2-yl]pyridin-2-yl}propanamide]	260
O=C1CCCc2[nH]c(-c3ccncc3OCC(F)F)c(Nc3ccccc3)c21 [Example 457, 2-[3-(2,2-difluoroethoxy)pyridin-4-yl]-3-(phenylamino)-1,5,6,7-tetrahydro-4H-indol-4-one]	53.5
COC(=O)CCn1c2c(c(Nc3ccccc3)c1-c1ccncc1)C(=O)CCC2 [Example 172, methyl 3-[4-oxo-3-(phenylamino)-2-(pyridin-4-yl)-4,5,6,7-tetrahydro-1H-indol-1-yl]propanoate]	1050
COC(C)c1cccc(Nc2c(-c3ccncc3)[nH]c3c2C(=O)CC(C)(C)C3)c1 (stereo not drawn) [Example 156, 3-{[3-(1-methoxyethyl)phenyl]amino}-6,6-dimethyl-2-(pyridin-4-yl)-1,5,6,7-tetrahydro-4H-indol-4-one]	743
CC1(C)CC(=O)c2c([nH]c(-c3ccncc3)c2Nc2ccccc2Br)C1 [Example 71, 3-[(2-bromophenyl)amino]-6,6-dimethyl-2-(pyridin-4-yl)-1,5,6,7-tetrahydro-4H-indol-4-one]	49.7
O=C1CC2(CC2)Cc2[nH]c(-c3ccnc(F)c3)c(Nc3ccccc3)c21 [Example 207, 2′-(2-fluoropyridin-4-yl)-3′-(phenylamino)-1′,7′-dihydrospiro[cyclopropane-1,6′-indol]-4′(5′H)-one]	7.32
CCOCC(=O)Nc1cc(-c2[nH]c3c(c2Nc2ccccc2)C(=O)CCC3)ccn1 [Example 334, 2-ethoxy-N-{4-[4-oxo-3-(phenylamino)-4,5,6,7-tetrahydro-1H-indol-2-yl]pyridin-2-yl}acetamide]	9.36
